Assay results: US20090093468A1, “Peptide Deformylase Inhibitors” (priority 2004, published 2009)
pIC50: −log10 of the molar value. One block for each compound: values may come before it.

How the values were obtained:
[1] = target: bacterial PDF (peptide deformylase), enzyme from E. coli (Escherichia coli, UniProt P0A6K3); test: Bacterial peptide deformylase (PDF) assay, enzyme from E. coli; assay type: biochemical
Experimental: (§1) The IC50 value of a compound of the invention as a bacterial PDF inhibitor was determined using the following assay.
(§2) Assay buffer (pH 7.2): 0.1 M MOPS pH was adjusted to 7.2 with NaOH, containing 0.25 M NaCl, 100 microgram/mL catalase and 1 mg/mL BSA.
(§3) Enzyme mix: 670 ng/mL of enzyme (to finally have 50 ng of enzyme per well).
(§4) Substrate: 10 mM f-Met-Ala was made up from 200 mM f-Met-Ala in methanol with assay buffer.
(§5) TNBS solution: Freshly dilute 1 M TNBS stock solution to 1:10 with water.
(§6) Buffer C: 0.5 M borate buffer adjusted to pH 9.5 with NaOH.
(§7) Buffer D: 0.2 ml of freshly prepared 0.5 M Na2SO3 was mixed with 9.8 mL of 0.5M NaH2PO4.
(§8) Inhibitor solution: 2 mM Sodium 4-(hydroxymercurio) benzoate in assay buffer.
(§9) The assay was performed in a 96 Microtiter plate containing test compound. To each well containing test compound mix was added 75 microliter of enzyme mix from E. coli followed, by the addition of 25 microliter of substrate mix. The resulting mix was incubated for 30 minutes at room temperature with shaking. TNBS solution (50 microliter/well) was added and the resulting mixture was incubated for 15 minutes under shaking. Buffer C was then added (20 microliter/well). After incubating at room temperature for 15 minutes under shaking, buffer D was added (50 microliter/well). The optical […] was then measured at 420 nm, thereby determining the IC50 value.

[2] = target: T1, bacterial PDF (peptide deformylase), enzyme from S. aureus (Staphylococcus aureus, UniProt P68826); test: Bacterial peptide deformylase (PDF) assay, enzyme from S. aureus; assay type: biochemical; conditions: PDF enzyme from S. aureus; substrate f-Met-Ala; TNBS readout at 420 nm; read-out: IC50 (enzyme from S. aureus)
T1 sequence (P68826 1-183): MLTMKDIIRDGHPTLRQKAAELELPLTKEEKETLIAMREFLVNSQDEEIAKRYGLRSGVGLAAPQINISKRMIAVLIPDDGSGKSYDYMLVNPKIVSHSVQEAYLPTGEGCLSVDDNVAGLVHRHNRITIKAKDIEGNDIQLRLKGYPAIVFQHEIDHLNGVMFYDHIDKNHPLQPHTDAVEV
Experimental: as §1, §2, §3, §4, §5, §6, §7, §8, §9
The assay was repeated using enzyme mix from S. aureus.

Sequence of bacterial PDF (peptide deformylase), enzyme from E. coli (P0A6K3 whole entry): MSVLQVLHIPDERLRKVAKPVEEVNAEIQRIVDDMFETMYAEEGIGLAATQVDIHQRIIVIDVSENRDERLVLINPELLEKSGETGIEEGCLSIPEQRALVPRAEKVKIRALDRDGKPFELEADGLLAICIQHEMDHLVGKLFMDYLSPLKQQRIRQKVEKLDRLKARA

SMILES: O=C(CC1CNc2ccccc2S1)NO (stereo not shown) [Example 1, 2-(3,4-Dihydro-2H-benzo[1,4]thiazin-2-yl)-N-hydroxy-acetamide]
- pIC50 [1]: 4.25
- pIC50 [2]: 4.42

SMILES: O=C(CC1CNc2ccccc2S1(=O)=O)NO (stereo not shown) [Example 2, 2-(1,1-Dioxo-1,2,3,4-tetrahydro-1λ^6-benzo[1,4]thiazin-2-yl)-N-hydroxy-acetamide]
- pIC50 [1]: 5.47
- pIC50 [2]: 5.82

SMILES: CCN1CC(CC(=O)NO)Sc2ccccc21 (stereo not shown) [Example 3, 2-(4-Ethyl-3,4-dihydro-2H-benzo[1,4]thiazin-2-yl)-N-hydroxy-acetamide]
- pIC50 [1]: 5.59
- pIC50 [2]: 5.25

SMILES: CCN1CC(CC(=O)NO)S(=O)(=O)c2ccccc21 (stereo not shown) [Example 4, 2-(4-Ethyl-1,1-dioxo-1,2,3,4-tetrahydro-1λ^6-benzo[1,4]thiazin-2-yl)-N-hydroxy-acetamide]
- pIC50 [1]: 5.85
- pIC50 [2]: 5.70

SMILES: CCCN1CC(CC(=O)NO)Sc2ccccc21 (stereo not shown) [Example 5, N-Hydroxy-2-(4-propyl-3,4-dihydro-2H-benzo[1,4]thiazin-2-yl)-acetamide]
- pIC50 [1]: 5.15
- pIC50 [2]: 5.07

SMILES: CCCN1CC(CC(=O)NO)S(=O)(=O)c2ccccc21 (stereo not shown) [Example 6, 2-(1,1-Dioxo-4-propyl-1,2,3,4-tetrahydro-1λ^6-benzo[1,4]thiazin-2-yl)-N-hydroxy-acetamide]
- pIC50 [1]: 5.80
- pIC50 [2]: 5.72

SMILES: CCCCN1CC(CC(=O)NO)Sc2ccccc21 (stereo not shown) [Example 7, 2-(4-Butyl-3,4-dihydro-2H-benzo[1,4]thiazin-2-yl)-N-hydroxy-acetamide]
- pIC50 [1]: 4.66
- pIC50 [2]: 4.45

SMILES: CCCCN1CC(CC(=O)NO)S(=O)(=O)c2ccccc21 (stereo not shown) [Example 8, 2-(4-Butyl-1,1-dioxo-1,2,3,4-tetrahydro-1λ^6-benzo[1,4]thiazin-2-yl)-N-hydroxy-acetamide]
- pIC50 [1]: 5.06
- pIC50 [2]: 5.09

SMILES: O=C(CC1CN(Cc2ccccc2)c2ccccc2S1(=O)=O)NO (stereo not shown) [Example 9, 2-(4-Benzyl-1,1-dioxo-1,2,3,4-tetrahydro-1λ^6-benzo[1,4]thiazin-2-yl)-N-hydroxy-acetamide]
- pIC50 [1]: 4.67
- pIC50 [2]: 4.67

SMILES: O=C(CC1CN(Cc2cccc(F)c2)c2ccccc2S1(=O)=O)NO (stereo not shown) [Example 10, 2-[4-(3-Fluoro-benzyl)-1,1-dioxo-1,2,3,4-tetrahydro-1λ^6-benzo[1,4]thiazin-2-yl]-N-hydroxy-acetamide]
- pIC50 [1]: 4.56
- pIC50 [2]: 4.55

SMILES: CCN1CC(CC(=O)NO)S(=O)(=O)c2ccc(C(=O)NCc3ccccc3)cc21 (stereo not shown) [Example 11, 4-Ethyl-2-hydroxycarbamoylmethyl-1,1-dioxo-1,2,3,4-tetrahydro-1λ^6-benzo[1,4]thiazine-6-carboxylic acid benzylamide]
- pIC50 [1]: 4.75
- pIC50 [2]: 5.05

SMILES: CCN1CC(CC(=O)NO)S(=O)(=O)c2ccc(C(=O)NCc3ccccc3F)cc21 (stereo not shown) [Example 12, 4-Ethyl-2-hydroxycarbamoylmethyl-1,1-dioxo-1,2,3,4-tetrahydro-1λ^6-benzo[1,4]thiazine-6-carboxylic acid 2-fluoro-benzylamide]
- pIC50 [1]: 4.97
- pIC50 [2]: 4.43

SMILES: CCN1CC(CC(=O)NO)S(=O)(=O)c2ccc(C(=O)NCc3cccc(F)c3)cc21 (stereo not shown) [Example 13, 4-Ethyl-2-hydroxycarbamoylmethyl-1,1-dioxo-1,2,3,4-tetrahydro-1λ^6-benzo[1,4]thiazine-6-carboxylic acid 3-fluoro-benzylamide]
- pIC50 [1]: 4.93
- pIC50 [2]: 4.86

SMILES: CCN1CC(CC(=O)NO)S(=O)(=O)c2ccc(C(=O)NCc3ccc(F)cc3)cc21 (stereo not shown) [Example 14, 4-Ethyl-2-hydroxycarbamoylmethyl-1,1-dioxo-1,2,3,4-tetrahydro-1λ^6-benzo[1,4]thiazine-6-carboxylic acid 4-fluoro-benzylamide]
- pIC50 [1]: 4.98
- pIC50 [2]: 5.00

SMILES: CCN1CC(CC(=O)NO)S(=O)(=O)c2ccc(C(=O)NCc3ccccc3Br)cc21 (stereo not shown) [Example 15, 4-Ethyl-2-hydroxycarbamoylmethyl-1,1-dioxo-1,2,3,4-tetrahydro-1λ^6-benzo[1,4]thiazine-6-carboxylic acid 2-bromo-benzylamide]
- pIC50 [1]: 4.70
- pIC50 [2]: 5.02

SMILES: CCN1CC(CC(=O)NO)S(=O)(=O)c2ccc(C(=O)NCc3cccc(Br)c3)cc21 (stereo not shown) [Example 16, 4-Ethyl-2-hydroxycarbamoylmethyl-1,1-dioxo-1,2,3,4-tetrahydro-1λ^6-benzo[1,4]thiazine-6-carboxylic acid 3-bromo-benzylamide]
- pIC50 [1]: 5.70
- pIC50 [2]: 5.01

SMILES: CCN1CC(CC(=O)NO)S(=O)(=O)c2ccc(C(=O)NCc3ccc(Br)cc3)cc21 (stereo not shown) [Example 17, 4-Ethyl-2-hydroxycarbamoylmethyl-1,1-dioxo-1,2,3,4-tetrahydro-1λ^6-benzo[1,4]-thiazine-6-carboxylic acid 4-bromo-benzylamide]
- pIC50 [1]: 5.82
- pIC50 [2]: 5.47

SMILES: CCN1CC(CC(=O)NO)S(=O)(=O)c2ccc(C(=O)NCc3ccccc3[N+](=O)[O-])cc21 (stereo not shown) [Example 18, 4-Ethyl-2-hydroxycarbamoylmethyl-1,1-dioxo-1,2,3,4-tetrahydro-1λ^6-benzo[1,4]thiazine-6-carboxylic acid 2-nitro-benzylamide]
- pIC50 [1]: 4.75
- pIC50 [2]: 4.95

SMILES: CCN1CC(CC(=O)NO)S(=O)(=O)c2ccc(C(=O)NCc3cccc([N+](=O)[O-])c3)cc21 (stereo not shown) [Example 19, 4-Ethyl-2-hydroxycarbamoylmethyl-1,1-dioxo-1,2,3,4-tetrahydro-1λ^6-benzo[1,4]thiazine-6-carboxylic acid 3-nitro-benzylamide]
- pIC50 [1]: 5.48
- pIC50 [2]: 4.92

SMILES: CCN1CC(CC(=O)NO)S(=O)(=O)c2ccc(C(=O)NCc3ccc([N+](=O)[O-])cc3)cc21 (stereo not shown) [Example 20, 4-Ethyl-2-hydroxycarbamoylmethyl-1,1-dioxo-1,2,3,4-tetrahydro-1λ^6-benzo[1,4]thiazine-6-carboxylic acid 4-nitro-benzylamide]
- pIC50 [1]: 5.92
- pIC50 [2]: 5.41

SMILES: CCN1CC(CC(=O)NO)S(=O)(=O)c2ccc(C(=O)NCc3ccccc3OC)cc21 (stereo not shown) [Example 21, 4-Ethyl-2-hydroxycarbamoylmethyl-1,1-dioxo-1,2,3,4-tetrahydro-1λ^6-benzo[1,4]thiazine-6-carboxylic acid 2-methoxy-benzylamide]
- pIC50 [1]: 5.82
- pIC50 [2]: 5.82

SMILES: CCN1CC(CC(=O)NO)S(=O)(=O)c2ccc(C(=O)NCc3cccc(OC)c3)cc21 (stereo not shown) [Example 22, 4-Ethyl-2-hydroxycarbamoylmethyl-1,1-dioxo-1,2,3,4-tetrahydro-1λ^6-benzo[1,4]thiazine-6-carboxylic acid 3-methoxy-benzylamide]
- pIC50 [1]: 6.00
- pIC50 [2]: 5.64

SMILES: CCN1CC(CC(=O)NO)S(=O)(=O)c2ccc(C(=O)NCc3ccc(OC)cc3)cc21 (stereo not shown) [Example 23, 4-Ethyl-2-hydroxycarbamoylmethyl-1,1-dioxo-1,2,3,4-tetrahydro-1λ^6-benzo[1,4]thiazine-6-carboxylic acid 4-methoxy-benzylamide]
- pIC50 [1]: 5.31
- pIC50 [2]: 4.88

SMILES: CCN1CC(CC(=O)NO)S(=O)(=O)c2ccc(C(=O)NCc3cccc(C(F)(F)F)c3)cc21 (stereo not shown) [Example 24, 4-Ethyl-2-hydroxycarbamoylmethyl-1,1-dioxo-1,2,3,4-tetrahydro-1λ^6-benzo[1,4]thiazine-6-carboxylic acid 3-trifluoromethyl-benzylamide]
- pIC50 [1]: 5.70
- pIC50 [2]: 5.08

- pIC50 [2]: 5.38
SMILES: CCN1CC(CC(=O)NO)S(=O)(=O)c2ccc(C(=O)NCc3ccc(C(F)(F)F)cc3)cc21 (stereo not shown) [Example 25, 4-Ethyl-2-hydroxycarbamoylmethyl-1,1-dioxo-1,2,3,4-tetrahydro-1λ^6-benzo[1,4]thiazine-6-carboxylic acid 4-trifluoromethyl-benzylamide]

SMILES: CCN1CC(CC(=O)NO)S(=O)(=O)c2ccc(C(=O)NCc3ccc(OC(F)(F)F)cc3)cc21 (stereo not shown) [Example 26, 4-Ethyl-2-hydroxycarbamoylmethyl-1,1-dioxo-1,2,3,4-tetrahydro-1λ^6-benzo[1,4]thiazine-6-carboxylic acid 4-trifluoromethoxybenzylamide]
- pIC50 [1]: 5.96
- pIC50 [2]: 5.30

SMILES: CCN1CC(CC(=O)NO)S(=O)(=O)c2ccc(C(=O)NCc3ccc(N(C)C)cc3)cc21 (stereo not shown) [Example 27, 4-Ethyl-2-hydroxycarbamoylmethyl-1,1-dioxo-1,2,3,4-tetrahydro-1λ^6-benzo[1,4]thiazine-6-carboxylic acid 4-dimethylaminobenzylamide]
- pIC50 [1]: 5.03
- pIC50 [2]: 4.74

SMILES: CCN1CC(CC(=O)NO)S(=O)(=O)c2ccc(C(=O)NCc3ccncc3)cc21 (stereo not shown) [Example 28, 4-Ethyl-2-hydroxycarbamoylmethyl-1,1-dioxo-1,2,3,4-tetrahydro-1λ^6-benzo[1,4]thiazine-6-carboxylic acid (pyridin-4-ylmethyl)-amide]
- pIC50 [1]: < 3.70
- pIC50 [2]: 4.15
